Source: PMC5849655 (European Journal of Clinical Pharmacology, 2017)
Read-outs that look alike come from different tables or passages of the source.

What was measured:
[1] = Caco-2 permeability (siponimod, reference compound); type: in vitro ADME, human; settings: human, Caco-2; SimCYP V9 input of the siponimod model; read-out: Reference compound permeability
Description: (§1) Siponimod absorption was predicted based on the permeability of Caco-2 cell (human colon carcinoma cell line) monolayers and considered to be complete (fraction absorbed [fa] = 1). Absorption rate constant (Ka) was calculated from the first clinical data to be 0.98/h. […] A volume of distribution of 2.12 L/kg was estimated based on preclinical data observation. The initial CL estimation of the siponimod model was based on human in vitro data from HLM and recombinant enzyme kinetics [unpublished data]. By using the in vivo clearance (CL/F) together with the fractional contribution of each CYP enzyme (phenotyping data) in the SimCYP retrograde calculator, the enzyme CLint values were estimated, resulting in an improved drug exposure prediction (Table 3).

[2] = test system: Caco-2 cell (human colon carcinoma cell line) monolayers; assay: as above; type: in vitro ADME; settings: SimCYP V12 input of the siponimod model
Description: as §1

[3] = test system: Caco 2; settings: cited from earlier work
[4] = cited from earlier work
[5] = target: CYP2C19 (Homo sapiens, UniProt P33261); settings: cited from earlier work; for Ki: read-out: Competitive inhibition constant, Ki (CYP2C19)
Sequence of CYP2C19 (P33261 whole entry): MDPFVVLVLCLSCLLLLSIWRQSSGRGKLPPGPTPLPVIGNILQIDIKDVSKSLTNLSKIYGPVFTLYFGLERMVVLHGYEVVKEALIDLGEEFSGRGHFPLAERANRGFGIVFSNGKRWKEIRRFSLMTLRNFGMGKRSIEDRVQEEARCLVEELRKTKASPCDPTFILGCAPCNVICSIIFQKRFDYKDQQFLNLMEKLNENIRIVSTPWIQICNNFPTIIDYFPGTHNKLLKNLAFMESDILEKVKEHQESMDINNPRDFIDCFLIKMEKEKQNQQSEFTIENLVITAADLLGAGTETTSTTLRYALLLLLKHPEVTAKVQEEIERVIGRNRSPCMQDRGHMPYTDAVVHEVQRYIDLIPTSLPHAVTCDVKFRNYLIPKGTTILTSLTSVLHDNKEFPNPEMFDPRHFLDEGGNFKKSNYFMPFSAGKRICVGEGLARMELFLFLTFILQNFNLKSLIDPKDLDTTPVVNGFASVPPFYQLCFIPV

[6] = cited from earlier work; remark: listed apart in the source
[7] = test system: CYP; settings: cited from earlier work
[8] = cited from earlier work; remark: listed apart in the source
[9] = test system: CYP3A5; settings: cited from earlier work

## CC(C)NCC(O)COc1cccc2ccccc12 (stereo not shown) [Propranolol, reference compound]
[1]
  Papp: 5.33 ×10⁻⁶ cm/s
[2]
  Reference compound permeability: Propranolol 5.33 10^-6cm/s

## OC(Cn1cncn1)(Cn1cncn1)c1ccc(F)cc1F [fluconazole]
[3]; ref SimCYP version 9
  Caco 2 permeability, P Caco 2: 29.8 10^-6cm/s
[3]; ref SimCYP version 16
  Caco 2 permeability, P Caco 2: 29.8 10^-6cm/s
[4]; ref SimCYP version 9
  Main plasma binding protein: HSA
[4]; ref SimCYP version 16
  Main plasma binding protein: HSA
[5]; ref SimCYP version 9
  Fraction unbound in vitro, fumic (CYP2C19): 1
  Ki: 2 µM
[5]; ref SimCYP version 16
  Fraction unbound in vitro, fumic (CYP2C19): 1
  Ki: 2 µM
[6]; ref SimCYP version 9
  In vivo po clearance, CLpo: 1.5 L/h
  Renal clearance in a 20-30 yr healthy male, CLR: 0.865 L/h
  Volume of distribution, Vss: 0.57 L/kg
[6]; ref SimCYP version 16
  In vivo iv clearance, CLiv: 1.01 L/h
  Renal clearance in a 20-30 yr healthy male, CLR: 0.700 L/h
  Volume of distribution, Vss: 0.748 L/kg
[6]; used in the V9 model, ref SimCYP V7
  In vivo iv clearance, CLiv: 1.3 (SimCYP V7) L/h
[7]; ref SimCYP version 9
  Is the compound a CYP inducer?: no
  Is the compound a MBI?: no
[7]; ref SimCYP version 16
  Is the compound a CYP inducer?: no
  Is the compound a MBI?: no
[8]; ref SimCYP version 9
  Compound type: monoprotic base
[8]; ref SimCYP version 16
  Compound type: monoprotic base
[9]; ref SimCYP version 9
  Fraction unbound in vitro, fumic (CYP3A5): 1
[9]; ref SimCYP version 16
  Fraction unbound in vitro, fumic (CYP3A5): 1
